Values of other authors as cited in patent US5008256A, “Salts of ranitidine and complexes of bismuth with carboxylic acids, and pharmaceutical compositions thereof” (Glaxo Group Limited, priority 1988, dated 1991).

What was measured:
histamine H2 receptor = settings: background; in words
Campylobacter pylori = settings: background; in words

| SMILES | histamine H2-antagonist activity (histamine H2 receptor) | susceptibility of Campylobacter pylori (Campylobacter pylori) |
| --- | --- | --- |
| CNC(=C[N+](=O)[O-])NCCSCc1ccc(CN(C)C)o1 [Ranitidine, N-[2-[[[5-[(dimethylamino)-methyl]-2-furanyl]methyl]thio]ethyl]-N'-methyl-2-nitro-1,1-ethenediamine] | potent histamine H2 -antagonist |  |
| O=C([O-])CC(O)(CC(=O)[O-])C(=O)[O-].O=C([O-])CC(O)(CC(=O)[O-])C(=O)[O-].[Bi+3].[K+].[K+].[K+] [bismuth subcitrate, tripotassium dicitrato bismuthate] |  | susceptible |
